Read-outs that look alike come from different tables or passages of the source.
Columns and labels:
mouse L 1210 leukemia [1] = assay: L1210 leukemia in mice: inoculum of 10^5 cells, single dose of compound 24 hours later; format: in vivo; details: for % of killed cells / ILS (increased life span) % / Mean survival in days for treated mice: inoculum 10^5 L1210 cells; for Cured animals: cured/total
Description: The experimental tumor mouse L 1210 leukemia is commonly used to evaluate the effects of all the antitumor compounds now used in human therapeutics,as was described, for example, by C. C. ZUBROD in Proc. Nat. Acad. Sci. USA 69, 1972, pp. 1042-1047. This experimentally formed tumoral system permits very accurate quantitative evaluation of the activity of the compound tested and also, consequently, an objective comparison of the respective activities of various compounds, for example, according to the methods described by H. E. SKIPPER, F. M. SCHABEL Jr. and W. S. WILCOX in Cancer Chemiother. Rep. 1964, pp. 1-111 and 45, 1965, pp. 5-28.
(§1) The mice were randomized in each experimental series. A first routine experiment enable the death rate by toxicity to be determined and thus established the sublethal doses.
According to the convention in force in this field, the animals which survived longer than 45 days after inoculation of tumoral cells were considered to be cured.
(§2) To evaluate the therapeutic activity of the compounds of the invention, doses of said compound were expressed basing them on the 30 days sublethal dose which was fixed at 1.
A--A tumoral inoculum of 10^5 L1210 leukemia cells was administered by the intraperitoneal way to twenty 2 to 3 months old DBA/2 strain female mice. 24 hours later, half of said mice received a single intraperitoneal injection of a variable dose of the compound to be tested and the same volume of solvent was administered to the other half of the mice by the same way; this latter half of the group of mice was therefore used as the control series. The mice were randomized in each experimental series.
Animals surviving for longer than 45 days were considered to be cured.

mouse L 1210 leukemia [2] = assay: as above; format: in vivo
[3] = for DLo (I.P.) / DLo (I.V.): mice; for DLo (I.P.): single i.p. injection
Description: as §1, §2

Solubility = format: physicochemical
[4] = I.P., dose 0.1 of the sublethal dose
[5] = I.P., dose 1 (the sublethal dose)
[6] = L1210 in vivo, intravenous injection
[7] = I.P., dose 0.005 of the sublethal dose
[8] = I.P., dose 0.01 of the sublethal dose
[9] = I.P., dose 0.02 of the sublethal dose
[10] = I.P., dose 0.3 of the sublethal dose
[11] = I.P., dose 0.002 of the sublethal dose
[12] = I.P., dose 0.2 of the sublethal dose

Compound	ILS (increased life span) % (mouse L 1210 leukemia [1]; [4])	ILS (increased life span) % (mouse L 1210 leukemia [1]; [5])	ILS (increased life span) % (mouse L 1210 leukemia [1]; [7])	ILS (increased life span) % (mouse L 1210 leukemia [1]; [8])	ILS (increased life span) % (mouse L 1210 leukemia [1]; [9])	ILS (increased life span) % (mouse L 1210 leukemia [1]; [10])	Chemotherapeutic index (mouse L 1210 leukemia [1]; L1210 in vivo)	Criterion (ii): occurrence of cured animals (mouse L 1210 leukemia [1]; L1210 in vivo)	DLo (I.P.) [3]	ILS (increased life span) % (mouse L 1210 leukemia [1]; [11])	ILS (increased life span) % (mouse L 1210 leukemia [1]; [12])	DLo (I.V.) [3]	further results
9-hydroxy-2(β-diisopropylamino-ethyl)-ellipticiniu acetate	110%	110%											% of killed cells (mouse L 1210 leukemia [1]; [4]): < 90%; Mean survival in days for treated mice (mouse L 1210 leukemia [1]; [4]): 10.7 days; % of killed cells (mouse L 1210 leukemia [1]; [5]): < 90%; Mean survival in days for treated mice (mouse L 1210 leukemia [1]; [5]): 10.9 days; Criterion (iv): persistence of the antileukemic action after an intravenous injection (mouse L 1210 leukemia [2]; [6]): +
CC(=O)Oc1ccc2c(c1)c1c(C)c3c[n+](C)ccc3c(C)c1n2C [9-acetoxy-2,6-dimethyl-ellipticinium acetate]													Antitumoral activity on L1210 leukemia (comparison in words) (mouse L 1210 leukemia [1]; mouse, in vivo): comparable with that of the 9-hydroxy-2,6-dimethyl-ellipticinium acetate; LDo (highest non lethal dose / sublethal dose) for mice ([3]; route not given): 50 mg/kg
CC[n+]1ccc2c(C)c3[nH]c4ccc(OC(C)=O)cc4c3c(C)c2c1 [9-acetoxy-2-ethyl-ellipticinium acetate]	157%		114%	134%	137%	180%	100	+	50 mg/kg				ILS (increased life span) % (mouse L 1210 leukemia [1]; I.P., dose 0.6 of the sublethal dose): 191%; Cured animals (mouse L 1210 leukemia [1]; L1210 in vivo, dose LDo /3): 3/20
CCN(CC)CC[n+]1ccc2c(C)c3[nH]c4ccc(O)cc4c3c(C)c2c1 [9-hydroxy-2(β-diethylamino-ethyl)-ellipticinium acetate]	173%			137%	139%	243%	100	+	50 mg/kg	119%	151%	5 mg/kg	ILS (increased life span) % (mouse L 1210 leukemia [1]; I.P., dose 0.5 of the sublethal dose): 196%; Cured animals (mouse L 1210 leukemia [1]; L1210 in vivo, dose LDo /2): 6/20; ILS (increased life span) % (mouse L 1210 leukemia [2]; I.V., dose 1 (the sublethal dose), inoculum 10^5 L1210 cells): 112%
Cc1c2cc[n+](CCN3CCCCC3)cc2c(C)c2c1[nH]c1ccc(O)cc12 [9-hydroxy-2(β-piperidino-ethyl)-ellipticinium acetate]	181%	171%	119%	124%	131%		100	+	50 mg/kg	113%	202%	10 mg/kg	ILS (increased life span) % (mouse L 1210 leukemia [1]; I.V., dose 1 (the sublethal dose)): 131%; Increased life span (ILS) (mouse L 1210 leukemia [1]; L1210 in vivo, dose LDo /5): 102%; Cured animals (mouse L 1210 leukemia [1]; L1210 in vivo, dose LDo): 5/15; Criterion (i): ILS higher than 100% (mouse L 1210 leukemia [1]; L1210 in vivo, intraperitoneal injection of 10^5 cells): + (increased life span (ILS) higher than 100% after intraperitoneal injection of 10^5 cells); Criterion (iv): persistence of the antileukemic action after an intravenous injection (mouse L 1210 leukemia [1]; [6]): +
CCn1c2ccc(O)cc2c2c(C)c3c[n+](CC)ccc3c(C)c21 [9-hydroxy-2,6-diethyl-ellipticinium acetate]													Solubility (Solubility): well water soluble; Solubility (Solubility; water, read-out: Concentration of easily prepared aqueous solution): 4000 µg/mL
